Laboratory results: ChEMBL document CHEMBL3399937, “(18)F-AmBF3-MJ9: a novel radiofluorinated bombesin derivative for prostate cancer imaging” (Bioorg Med Chem, 2015)

Biological target: Gastrin-releasing peptide receptor (Rattus norvegicus) (UniProt P52500)
Assay: Binding affinity to rat pancreatic acini GRPR

Sequence of Gastrin-releasing peptide receptor (Rattus norvegicus) (P52500 whole entry): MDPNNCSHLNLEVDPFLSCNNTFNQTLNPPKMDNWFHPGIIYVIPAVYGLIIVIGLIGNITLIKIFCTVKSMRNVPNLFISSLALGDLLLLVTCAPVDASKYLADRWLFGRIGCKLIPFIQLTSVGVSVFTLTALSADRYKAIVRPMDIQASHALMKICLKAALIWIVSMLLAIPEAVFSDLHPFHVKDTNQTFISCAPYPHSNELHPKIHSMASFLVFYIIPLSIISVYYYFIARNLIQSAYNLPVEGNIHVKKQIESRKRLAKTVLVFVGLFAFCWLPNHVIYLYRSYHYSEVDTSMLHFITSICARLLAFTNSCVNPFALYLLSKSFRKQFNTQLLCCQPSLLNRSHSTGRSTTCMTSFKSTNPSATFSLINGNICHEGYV

Activity: 0.9 nM
Compound: CC(C)C[C@H](NC(=O)C[C@H](O)[C@H](CC(C)C)NC(=O)[C@H](Cc1cnc[nH]1)NC(=O)CNC(=O)[C@@H](NC(=O)[C@H](C)NC(=O)[C@H](Cc1c[nH]c2ccccc12)NC(=O)[C@H](CCC(N)=O)NC(=O)[C@H](N)Cc1ccccc1)C(C)C)C(N)=O
